≈ marks a conversion by molar mass, not a printed value. Where “and” joins values, the source holds several entries; their conditions need not be identical. Equal values may be shown once. Where a name gives a salt, the structure may show the parent alone. Read-outs that look alike come from different tables or passages of the source. Each block holds one compound with its values, some of them ahead of it.
Key:
[1] = Solubility of apomorphine in phosphate buffers at varying pH (Example 14); assay type: physicochemical; details: stirred ~18 hours
Experimental: The testing procedure was as followings: • 1. […] The samples were stirred for ˜18 hours before analysis. • 4. […] The samples were stirred for ˜18 hours before analysis. • 5. After stirring ˜2mL of the supernatant was obtained from each vial and centrifuge at 12000 RPM to precipitate un-dissolved drug. • 6. After centrifugations, approximately 1 mL of the supernatant was diluted with approximately 50 mL of water: methanol: H3PO4 (50:50:1.2 v/v) for HPLC analysis according to the procedure described in Example 13 above.

[2] = Dissolution in simulated saliva media (Example 15); assay type: physicochemical; details: simulated saliva pH 6.2, 37° C., two samples per time point, hydrochloride
Experimental: The dissolution of the composition as described in Example 5 was compared to the dissolution of USP grade apomorphine hydrochloride. The following procedure was employed to obtain the dissolution profiles: • 1.
• 3. Approximately 5 mL or 10 mL of pre-warmed simulated saliva was added to the vials of step 2 according to the table above, and a stop watch was started. The vials with the media were gently swirled to allow the powder in the vials to go into solution. • 4. At specific time points, samples of the media were withdrawn from the vials of step 3 and transferred into the barrel of a 10 mL syringe with a […] filter attached to the tip of the syringe. The solution was pushed through the filter and collected for HPLC assay according to the procedure described in Example 13 above. • 5. For sample time points longer than 5 minutes the vials of step 3 were placed in a 37° C. incubator and shaken at 50 rpms until the collection time point.

[3] = sublingual apomorphine tablets, prolonged use; cited from earlier work
[4] = subcutaneous injections, on-off fluctuations in Parkinson's disease; cited from earlier work

solubility ([1]; pH 2.50 phosphate buffer, hydrochloride, unit assumed): 22800 µg/mL
solubility ([1]; pH 3.00 phosphate buffer, hydrochloride, unit assumed): 21600 µg/mL
solubility ([1]; pH 4.00 phosphate buffer, hydrochloride, unit assumed): 20000 µg/mL
solubility ([1]; pH 5.00 phosphate buffer, hydrochloride, unit assumed): 18800 µg/mL
solubility ([1]; pH 6.00 phosphate buffer, hydrochloride, unit assumed): 7400 µg/mL
solubility ([1]; pH 6.20 phosphate buffer, hydrochloride, unit assumed): 7200 µg/mL
solubility ([1]; pH 6.40 phosphate buffer, hydrochloride, unit assumed): 3700 µg/mL
solubility ([1]; pH 8.00 phosphate buffer, hydrochloride, unit assumed): 270 µg/mL
solubility ([1]; phosphate buffer, pH 6.6, aqueous buffer, thermodynamic from solid, pH 6.60 phosphate buffer, read-out: solubility): 1900 µg/mL
solubility ([1]; phosphate buffer, pH 6.8, aqueous buffer, thermodynamic from solid, pH 6.80 phosphate buffer, read-out: solubility): 1400 µg/mL
solubility ([1]; phosphate buffer, pH 7, aqueous buffer, thermodynamic from solid, pH 7.00 phosphate buffer, read-out: solubility): 1000 µg/mL
solubility ([1]; phosphate buffer, pH 7.4, aqueous buffer, thermodynamic from solid, pH 7.40 phosphate buffer, read-out: solubility): 610 µg/mL
dissolution ([2]; 0.5 min): 30.52% and 27.73%
dissolution ([2]; 1 min): 34.58% and 30.24%
dissolution ([2]; 5 min): 57.54% and 46.57%
dissolution ([2]; 10 min): 46.00% and 52.29%
dissolution ([2]; 30 min): 53.23% and 74.97%
dissolution ([2]; Initial): 22.75% and 19.05%
SMILES: CN1CCc2cccc3c2[C@H]1Cc1ccc(O)c(O)c1-3 [Apomorphine HCl, apomorphine hydrochloride]

solubility ([1]; pH 2.50 phosphate buffer, unit assumed): 9200 µg/mL (≈ 34.4 mM)
solubility ([1]; pH 3.00 phosphate buffer, unit assumed): 3700 µg/mL (≈ 13.8 mM)
solubility ([1]; pH 4.00 phosphate buffer, unit assumed): 2700 µg/mL (≈ 10.1 mM)
solubility ([1]; pH 5.00 phosphate buffer, unit assumed): 2500 µg/mL (≈ 9.35 mM)
solubility ([1]; pH 6.00 phosphate buffer, unit assumed): 2000 µg/mL (≈ 7.48 mM)
solubility ([1]; pH 6.20 phosphate buffer, unit assumed): 1700 µg/mL (≈ 6.36 mM)
solubility ([1]; pH 6.40 phosphate buffer, unit assumed): 1700 µg/mL (≈ 6.36 mM)
solubility ([1]; pH 6.60 phosphate buffer, unit assumed): 1300 µg/mL (≈ 4.86 mM)
solubility ([1]; pH 6.80 phosphate buffer, unit assumed): 1200 µg/mL (≈ 4.49 mM)
solubility ([1]; pH 7.00 phosphate buffer, unit assumed): 670 µg/mL (≈ 2.51 mM)
solubility ([1]; pH 7.40 phosphate buffer, unit assumed): 400 µg/mL (≈ 1.5 mM)
solubility ([1]; pH 8.00 phosphate buffer, unit assumed): 120 µg/mL (≈ 0.449 mM)
SMILES: CN1CCc2cccc3c2[C@H]1Cc1ccc(O)c(O)c1-3 [Apomorphine Free Base, 6αβ-aporphine-10, 11 diol]

SMILES: CN1CCc2cccc3c2[C@H]1Cc1ccc(O)c(O)c1-3 [apomorphine, 6αβ-aporphine-10, 11 diol]
patients with buccal mucosal ulceration (severe stomatitis) [3]: approximately 30%
duration of effect [4]: 45 to 90 min
time to effect after administration [4]: 5 to 15 min

— patent publication US20190365641A1, “RAPIDLY DISINTEGRATING FORMULATIONS AND METHODS OF USE” (Impax Laboratories, Inc., priority 2013, published 2019)
